Reference: PubChem BioAssay (NCI)
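Cells were grown in 96-well plates and exposed to each compound for 48 hours at five concentrations; endpoints were interpolated linearly between bracketing concentrations, or set to the highest concentration if not reached. Definition used: TGI = concentration required for complete inhibition of growth.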

Columns and labels:
Assay in all cases: DTP human tumour cell line panel, 48 h
KM12 colon = test system: KM12 colon
MDA-MB-231 breast = test system: MDA-MB-231 breast
ACHN renal = test system: ACHN renal
MDA-N = test system: MDA-N
NCI-H23 lung = test system: NCI-H23 lung
TK-10 renal = test system: TK-10 renal
SK-OV-3 ovarian = test system: SK-OV-3 ovarian
OVCAR-3 ovarian = test system: OVCAR-3 ovarian
HCC-2998 colon = test system: HCC-2998 colon
IGROV1 ovarian = test system: IGROV1 ovarian
T-47D breast = test system: T-47D breast
OVCAR-5 ovarian = test system: OVCAR-5 ovarian
SK-MEL-28 melanoma = test system: SK-MEL-28 melanoma
DU-145 prostate = test system: DU-145 prostate
NCI-H522 lung = test system: NCI-H522 lung
EKVX NSCLC = test system: EKVX NSCLC
RXF 393 renal = test system: RXF 393 renal
RPMI-8226 leukemia = test system: RPMI-8226 leukemia
SNB-19 CNS = test system: SNB-19 CNS
LOX IMVI melanoma = test system: LOX IMVI melanoma

Row | SMILES | TGI (KM12 colon) [µM] | TGI (MDA-MB-231 breast) [µM] | TGI (ACHN renal) [µM] | TGI (MDA-N) [µM] | TGI (NCI-H23 lung) [µM] | TGI (TK-10 renal) [µM] | TGI (SK-OV-3 ovarian) [µM] | TGI (OVCAR-3 ovarian) [µM] | TGI (HCC-2998 colon) [µM] | TGI (IGROV1 ovarian) [µM] | TGI (T-47D breast) [µM] | TGI (OVCAR-5 ovarian) [µM] | TGI (SK-MEL-28 melanoma) [µM] | TGI (DU-145 prostate) [µM] | TGI (NCI-H522 lung) [µM] | TGI (EKVX NSCLC) [µM] | TGI (RXF 393 renal) [µM] | TGI (RPMI-8226 leukemia) [µM] | TGI (SNB-19 CNS) [µM] | TGI (LOX IMVI melanoma) [µM]
1 | CCCCSC1=N/C(=C\c2ccco2)C(Cl)=N1 | > 100 | > 100 | > 100 | > 100 | > 100 | > 100 | > 100 | > 100 | > 100 | > 100 | > 100 | > 100 | > 100 | > 100 | > 100 | > 100 | > 100 | > 100 | > 100 | 
2 | Cc1cc(C)c2c(c1)C/C(=C\c1ccccc1C(=O)O)C2=O | > 100 | > 100 | > 100 | > 100 | > 100 | > 100 |  | > 100 | > 100 | > 100 | > 100 | > 100 | > 100 | > 100 | > 100 | > 100 | > 100 | > 100 | > 100 | > 100
3 | O=C(CCc1cc(O)ccc1O)OCCc1ccccc1 | > 80.6 | 42.7 | 18.4 | 26.9 | > 90.8 | 27.8 | > 100 |  | > 80.7 | 22.3 | 64.8 | > 52.1 | 78.7 | 41.2 | 1.78 | 61.9 | 25.9 | > 23.2 | > 100 | 
4 | O=C1C=CC(=O)c2c1ccc1c3ccccc3n(-c3cccc([N+](=O)[O-])c3)c21 | > 10 | 5.81 | 3.36 | 4.82 | 6.57 | 4.47 | > 10 | 4.57 | > 10 | > 10 | 5.67 | > 10 | > 6.36 | > 10 | 3.57 | > 9.51 | 4.48 | 3.9 | > 10 | > 10
5 | O=C1c2cccc3cccc(c23)C(=O)N1CCCNCCCNCCCCNCCCNCCCN1C(=O)c2cccc3cccc(c23)C1=O | 13.9 | 22.4 | 15.3 | 6.83 | 16 | 25 | 32.1 | 19.6 | 16.8 | 24.5 | 47 | 21.9 | 9 | 14 | 32.6 | 22 | 19.1 | > 34 | 15.9 | > 38.1
6 | Cc1c(O)c(OC2OC(CO)C(O)C(O)C2O)cc2c1CC[C@@H]1C2(C)C(=O)C[C@]2(C)[C@@H]([C@@](C)(O)C(=O)CCC(C)(C)O)[C@H](O)C[C@@]12C (stereo partly specified) | > 100 | > 100 | > 100 | > 100 | > 100 | > 100 | > 100 | > 100 | > 100 | > 100 | > 100 | > 100 | > 100 | > 100 | > 100 | > 100 | > 100 |  | > 100 | 
7 | Cc1cn(C2CC(O)C(CO[Si](C)(C)C(C)(C)C)OC2OC(C)C)c(=O)[nH]c1=O (stereo unspecified) | > 100 | > 100 | > 100 | > 100 | > 100 | > 100 |  | 46.3 | 62.7 | 77 | > 100 | > 100 | > 100 | > 100 | 89 | > 100 | 88.7 | 78.2 | > 100 | 32.5
8 | COC(=O)C1(C(=O)OC)C/C(C)=C(/C)SCCCS1 | > 100 | > 100 | > 100 | > 100 | > 100 | > 100 | > 100 | > 100 | > 100 | > 100 | > 100 | > 100 | > 100 | > 100 | > 100 | > 100 | > 100 |  | > 100 | > 100
9 | [N-]=[N+]=Nc1cc(=O)n2c3c(cccc13)CCC2 | > 100 | > 100 | > 100 | > 100 | > 100 | > 100 |  | > 100 | > 100 | > 100 | > 100 |  | > 100 | > 100 | > 100 | > 100 | > 100 | > 100 |  | > 100
10 | Cc1nc2ccc(NC(=S)Nc3ccccc3)cc2c(=O)n1-c1ccccc1 | > 100 | > 100 | > 100 | > 100 | > 100 | > 100 |  | > 100 | > 100 | > 100 | > 100 | > 100 | > 100 | > 100 | > 100 | > 100 | > 100 | 94.6 | > 100 | > 100
11 | CN(C)CC1CCC/C(=C\c2ccc(Cl)cc2)C1=O (stereo unspecified) | 3.46 | 9.21 | 7.04 | 5.17 | 22.5 | 10 | 23.2 | 12.1 | 18.1 | 8.62 | 13.4 | 35.6 | 9.04 | 29.1 | 3.27 | 25.7 |  | > 100 | 26.5 | 3.25
12 | CN1C(=O)c2ccccc2OC12C=Cc1ccc(O)cc1O2 (stereo unspecified) | 77.5 | 82.1 | > 100 | > 100 | > 100 | > 100 | 53.5 | 63.6 | 50.8 | > 100 | 52.6 | > 100 | > 100 | 69.7 | > 100 | 64.5 |  | > 100 | > 100 | 26.8
